These results are taken from patent US5811425A, “Heterocyclic compounds as COX-2 inhibitors” (Abbott Laboratories, priority 1997, dated 1998).

pIC50: −log10 of the molar value. Counter-ions that a name gives are not always drawn.

The target in experiment [1] is T1, recombinant human PGHS-2 (COX-2) (Homo sapiens, UniProt P35354).
T1 construct: made in house; host or cells: baculovirus/Sf9 insect cells (microsomes)
T1 sequence (P35354 18-604): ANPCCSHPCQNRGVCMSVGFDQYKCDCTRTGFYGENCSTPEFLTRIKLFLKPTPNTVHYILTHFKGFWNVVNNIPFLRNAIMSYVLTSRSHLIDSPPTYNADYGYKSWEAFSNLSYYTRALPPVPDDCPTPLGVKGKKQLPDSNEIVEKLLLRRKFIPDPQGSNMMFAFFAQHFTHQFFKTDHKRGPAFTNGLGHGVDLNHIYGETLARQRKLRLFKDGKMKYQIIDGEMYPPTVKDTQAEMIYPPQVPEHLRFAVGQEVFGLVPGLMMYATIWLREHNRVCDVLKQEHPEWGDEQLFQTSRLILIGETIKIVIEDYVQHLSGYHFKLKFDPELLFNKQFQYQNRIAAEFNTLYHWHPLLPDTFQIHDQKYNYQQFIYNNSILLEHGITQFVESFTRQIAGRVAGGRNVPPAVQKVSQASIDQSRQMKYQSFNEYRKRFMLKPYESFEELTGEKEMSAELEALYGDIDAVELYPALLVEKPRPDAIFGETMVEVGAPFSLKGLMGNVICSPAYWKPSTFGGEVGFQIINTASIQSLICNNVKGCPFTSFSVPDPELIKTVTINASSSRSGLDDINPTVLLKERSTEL
Kind of experiment: Recombinant human PGHS-2 enzyme assay (PGE2 production by EIA). The format is biochemical. To be noted: 60 min preincubation, 10 uM arachidonic acid; for inhibition at 0.1 µM: 100 nM compound. The protocol:
Recombinant Human PGHS-l and -2 Enzyme Assays: A compound of the invention was dissolved in DMSO (3.3%v/v) and preincubated with microsomes from recombinant human PGHS-1 and-2 expressed in the baculovirus/Sf9 cell system (Gierse, J. […] The reaction was allowed to run for 2.5 minutes at room temperature prior to quenching with HCl and neutralization with NaOH. PGE2 production in the presence and absence of the drug was determined by Enzyme ImmunoAssay ("EIA") analysis as described below. EIA Determination of Prostaglandins EIA reagents for prostaglandin determination were purchased from Perspective Diagnostics, Cambridge, Mass. PGE2 levels in lavage fluids were determined after the samples were dried under nitrogen and reconstituted with assay buffer. PGE2 levels in enzyme assays or cell culture media were measured against standards prepared in the same milieu. The immunoassays were conducted as recommended by the manufacturer. The EIA was conducted in 96 well microtiter plates (Nunc Roskilde, Denmark) and optical density measured using a microplate reader (Vmax, Molecular Devices Corp., Menlo Park, Calif.).

The test system of experiment [2] is carragennan induced pleurisy. Briefly: Carragennan Induced Pleurisy Test (CIP). It counts as in vivo, Sprague-Dawley rats. To be noted: Rattus norvegicus; rats, oral 10 mg/kg, 30 min before carrageenan; prostaglandin in pleural lavage at 4 h. As for the experimental part: (§1) EIA Determination of Prostaglandins
(§2) EIA reagents for prostaglandin determination were purchased from Perspective Diagnostics, Cambridge, Mass. PGE2 levels in lavage fluids were determined after the samples were dried under nitrogen and reconstituted with assay buffer. PGE2 levels in enzyme assays or cell culture media were measured against standards prepared in the same milieu. The immunoassays were conducted as recommended by the manufacturer. The EIA was conducted in 96 well microtiter plates (Nunc Roskilde, Denmark) and optical density measured using a microplate reader (Vmax, Molecular Devices Corp., Menlo Park, Calif.).
Carragennan Induced Pleurisy Test (CIP)
Four hours after carrageenan injection, the animals were euthanized and their pleural cavities lavaged with ice cold saline. […] Prostaglandin levels in the methanol lavage fluid were then determined by EIA.

For experiment [3], the target named is T2, recombinant human PGHS-1 (COX-1) (Homo sapiens, UniProt P23219).
T2 construct: made in house; host or cells: baculovirus/Sf9 insect cells (microsomes)
Briefly: Recombinant human PGHS-1 enzyme assay (PGE2 production by EIA). The format is biochemical. To be noted: 100 uM compound; 60 min preincubation; 10 uM arachidonic acid; read-out: COX-1 (% inhib. @ 100 uM). As for the experimental part:
Recombinant Human PGHS-l and -2 Enzyme Assays:
The reaction was allowed to run for 2.5 minutes at room temperature prior to quenching with HCl and neutralization with NaOH. PGE2 production in the presence and absence of the drug was determined by Enzyme ImmunoAssay ("EIA") analysis as described below.
as §1, §2

T2 sequence (P23219 24-599): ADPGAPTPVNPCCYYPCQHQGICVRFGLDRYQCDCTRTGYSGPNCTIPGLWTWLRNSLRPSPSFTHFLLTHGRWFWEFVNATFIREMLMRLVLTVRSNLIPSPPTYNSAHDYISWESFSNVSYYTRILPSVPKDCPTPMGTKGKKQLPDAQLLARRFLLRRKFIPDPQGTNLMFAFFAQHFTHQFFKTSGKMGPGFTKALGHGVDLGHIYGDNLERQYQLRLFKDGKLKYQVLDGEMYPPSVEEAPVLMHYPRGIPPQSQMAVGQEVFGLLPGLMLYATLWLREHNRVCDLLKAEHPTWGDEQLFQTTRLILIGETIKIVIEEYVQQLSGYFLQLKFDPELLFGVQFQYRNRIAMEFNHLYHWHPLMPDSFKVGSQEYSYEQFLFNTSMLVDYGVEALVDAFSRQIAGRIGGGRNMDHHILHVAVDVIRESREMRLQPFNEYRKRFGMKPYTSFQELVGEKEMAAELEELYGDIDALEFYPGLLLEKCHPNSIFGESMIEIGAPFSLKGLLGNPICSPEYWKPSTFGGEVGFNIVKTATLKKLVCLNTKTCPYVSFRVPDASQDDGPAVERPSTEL

Regarding `COc1ccc2c(c1)c(Cc1nc(-c3cccc(Br)c3)cs1)c(C)n2C(=O)c1ccc(Cl)cc1` [Example 4, 3-[4-(3-bromophenyl)thiazol-2-ylmethyl]-1-(4-Chlorobenzoyl)-5-methoxy-2-methylindole], in experiment [1], the pIC50 (commonly −log10 of the IC50, conventionally taken in molar units) is 8.10. In addition, in experiment [2], testing at 10 mg/kg gave an inhibition in vivo of 24%. Further, in experiment [3], the inhibition at 100 µM is 35%.

`COc1ccc2c(c1)c(Cc1nc(-c3ccc(S(C)(=O)=O)cc3)cs1)c(C)n2C(=O)c1ccc(Cl)cc1` [Example 9, 1-(4-Chlorobenzoyl)-3-[4-(4-methanesulfonylphenyl)thiazol-2-ylmethyl]-5-methoxy-2-methylindole hydrobromide salt]: in experiment [1], the negative-log IC50 (pIC50) is 7.22. Further, the inhibition at 100 µM in experiment [3] came out at 40%.

Take `COc1ccc2c(c1)c(Cc1nc(-c3ccc(Br)cc3)cs1)c(C)n2C(=O)c1ccc(Cl)cc1` [Example 1, 3-[4-(4-bromophenyl)thiazol-2-ylmethyl]-1-(4-Chlorobenzoyl)-5-methoxy-2-methylindole]: the pIC50 in experiment [1] is 9.52. Also, the inhibition in vivo (usually the drop in the measured response relative to a control, in per cent) at 10 mg/kg in experiment [2] was 43%. Moreover, the inhibition at 100 µM in experiment [3] worked out at 32%.

Take `COc1ccc2c(c1)c(Cc1nc(-c3ccc(Br)cc3)cs1)c(C)n2Cc1ccc(Br)cc1` [Example 15, 1-(4-bromobenzyl)-3-[4-(4-bromophenyl)thiazol-2-ylmethyl]-5-methoxy-2-methylindole]: in experiment [1], the negative logarithm of the IC50 (pIC50) was 7.52. Besides, the inhibition at 100 µM in experiment [3] worked out at 15%.

Turning to `COc1ccc2c(c1)c(Cc1nc(-c3ccc(F)cc3)cs1)c(C)n2C(=O)c1ccc(Cl)cc1` [Example 8, 1-(4-Chlorobenzoyl)-3-[4-(4-fluorophenyl)thiazol-2-ylmethyl]-5-methoxy-2-methylindole], the pIC50 in experiment [1] was 7.92. Besides, in experiment [3], the inhibition at 100 µM turned out to be 36%.

Consider `COc1ccc2c(c1)c(Cc1nc(-c3csc4ccccc34)cs1)c(C)n2C(=O)c1ccc(Cl)cc1` [Example 7, 3-[4-(3-benzothienyl)thiazol-2-ylmethyl]-1-(4-Chlorobenzoyl)-5-methoxy-2-methylindole], for which the negative-log IC50 (pIC50) in experiment [1] was 9.00. Also, 10 mg/kg produced 20% inhibition in vivo in experiment [2]. Moreover, the inhibition at 100 µM in experiment [3] stood at 23%.

On to `COc1ccc2c(c1)c(Cc1csc(-c3cccnc3)n1)c(C)n2C(=O)c1ccc(Cl)cc1` [Example 12, 1-(4-Chlorobenzoyl)-5-methoxy-2-methyl-3-[2-(3-pyridyl)thiazol-4-ylmethyl]indole], for which the pIC50 in experiment [1] was 7.70. In addition, the inhibition at 100 µM in experiment [3] is 40%.

Take `COc1ccc2c(c1)c(Cc1nc(-c3ccc(F)cc3F)cs1)c(C)n2C(=O)c1ccc(Cl)cc1` [Example 2, 1-(4-Chlorobenzoyl)-3-[4-(2.4-difluorophenyl)thiazol-2-ylmethyl]-5-methoxy-2-methylindole]: in experiment [1], the inhibition at 0.1 µM came to 82%. Also, the inhibition in vivo at 10 mg/kg in experiment [2] turned out to be 16%. Besides, in experiment [3], the inhibition at 100 µM is 20%.

As for `COc1ccc2c(c1)c(Cc1nc(-c3cccc([N+](=O)[O-])c3)cs1)c(C)n2C(=O)c1ccc(Cl)cc1` [Example 10, 1-(4-Chlorobenzoyl)-5-methoxy-2-methyl-3-[4-(3-nitrophenyl)thiazol-2-ylmethyl]indole], in experiment [1], the inhibition at 0.1 µM was found to be 85%. Besides, the inhibition at 100 µM in experiment [3] was determined as 31%.

`COc1ccc2c(c1)c(Cc1nc(-c3ccc(Cl)cc3)cs1)c(C)n2Cc1ccc(Br)cc1` [Example 14, 1-(4-bromobenzyl)-3-[4-(4-Chlorophenyl)thiazol-2-ylmethyl]-5-methoxy-2-methylindole]: the pIC50 in experiment [1] is 8.15. In experiment [2], the inhibition in vivo at 10 mg/kg turned out to be 36%. The inhibition at 100 µM in experiment [3] was 15%.

For `COc1ccc2c(c1)c(Cc1nc(-c3ccc([N+](=O)[O-])cc3)cs1)c(C)n2C(=O)c1ccc(Cl)cc1` [Example 6, 1-(4-Chlorobenzoyl)-5-methoxy-2-methyl-3-[4-(4-nitrophenyl)thiazol-2-ylmethyl]indole], in experiment [1], the pIC50 is 7.92. Further, the inhibition at 100 µM in experiment [3] stood at 26%.

As for `COc1ccc2c(c1)c(Cc1nc(-c3ccc(O)c([N+](=O)[O-])c3)cs1)c(C)n2C(=O)c1ccc(Cl)cc1` [Example 11, 1-(4-Chlorobenzoyl)-3-[4-(4-hydroxy-3-nitrophenyl)thiazol-2-ylmethyl]-5-methoxy-2-methylindole], the inhibition at 0.1 µM in experiment [1] amounted to 48%. Moreover, 10 mg/kg produced 30% inhibition in vivo in experiment [2]. The inhibition at 100 µM in experiment [3] was determined as 23%.

On to `COc1ccc2c(c1)c(Cc1csc(-c3ccncc3)n1)c(C)n2C(=O)c1ccc(Cl)cc1` [Example 13, 1-(4-Chlorobenzoyl)-5-methoxy-2-methyl-3-[2-(4-pyridyl)thiazol-4-ylmethyl]indole], for which the inhibition at 0.1 µM in experiment [1] came to 77%. Moreover, in experiment [2], 10 mg/kg produced 14% inhibition in vivo. Besides, in experiment [3], the inhibition at 100 µM amounted to 49%.

On to `COc1ccc2c(c1)c(Cc1nc(-c3ccc([N+](=O)[O-])cc3)cs1)c(C)n2Cc1ccc(Br)cc1` [Example 16, 1-(4-bromobenzyl)-5-methoxy-2-methyl-3-[4-(4-nitrophenyl)thiazol-2-ylmethyl]indole], for which the pIC50 in experiment [1] was 8.15. Also, the inhibition in vivo at 10 mg/kg in experiment [2] is 31%. Also, the inhibition at 100 µM in experiment [3] was determined as 21%.

As to `COc1ccc2c(c1)c(Cc1nc(-c3ccc4ccccc4c3)cs1)c(C)n2C(=O)c1ccc(Cl)cc1` [Example 3, 1-(4-Chlorobenzoyl)-5-methoxy-2-methyl-3-[4-(2-naphthyl)thiazol-2-ylmethyl]indole], the pIC50 in experiment [1] was 8.15. Further, in experiment [3], the inhibition at 100 µM came to 21%.

`COc1ccc2c(c1)c(Cc1nc(-c3ccc(Cl)cc3)cs1)c(C)n2C(=O)c1ccc(Cl)cc1` [Example 5, 1-(4-Chlorobenzoyl)-3-[4-(4-Chlorophenyl)thiazol-2-ylmethyl]-5-methoxy-2-methylindole]: the negative logarithm of the IC50 (pIC50) in experiment [1] is 7.85. Further, the inhibition at 100 µM in experiment [3] was 16%.
